Data set [1] deals with Ctenocephalides felis. The data set can be described thus: Ctenocephalides felis oral test. Type of data set: in vivo. The following applies: 48 h, 100 ppm in cattle blood, after 2 days. As to the method:
Ctenocephalides felis—Oral Test Solvent: dimethyl sulfoxide
To produce a suitable preparation of active compound, 10 mg of active compound are dissolved in 0.5 ml solvent, and the concentrate is diluted with cattle blood to the desired concentration.
Approximately 20 adult unfed cat fleas (Ctenocephalides felis) are placed in flea chambers. The blood chamber, sealed with parafilm on the bottom, are filled with cattle blood supplied with compound solution and placed on the gauze covered top of the flea chamber, so that the fleas are able to suck the blood. The blood chamber is heated to 37° C. whereas the flea chamber is kept at room temperature.
After 2 days mortality in % is determined. 100% means all the fleas have been killed; 0% means none of the fleas have been killed.

The test system of a further data set is Diabrotica balteata. The data set can be described thus: Diabrotica balteata spray test. Type of data set: in vivo. To be noted: 168 h, 160 gg/well, after 7 days, read-out: efficacy (seedlings grown). As to the method: Diabrotica balteata—Spray Test Solvent: 78.0 parts by weight of acetone • • 1.5 parts by weight of dimethylformamide Emulsifier: alkylarylpolyglycol ether
To produce a suitable preparation of active compound, 1 part by weight of active compound is mixed with the stated amount of solvent, and the concentrate is diluted with water, containing an emulsifier concentration of 1000 ppm, to the desired concentration. Further test concentrations are prepared by dilution with emulsifier containing water.
Soaked wheat seeds (Triticum aestivum) are placed in a multiple well plate filled with agar and some water and are incubated for 1 day to germinate (5 seeds per well). The germinated wheat seeds are sprayed with a test solution containing the desired concentration of the active ingredient. Afterwards each unit is infected with 10-20 larvae of the banded cucumber beetle (Diabrotica balteata).
After 7 days efficacy in % is determined. 100% means all the seedlings have grown up like in the untreated, uninfected control; 0% means none of the seedlings have grown.

For the next data set, the system named is Phaedon cochleariae. The data set can be described thus: Phaedon cochleariae spray test. Type of data set: in vivo. To be noted: 168 h, after 7 days. As for the experimental part: Phaedon cochleariae—Spray Test Solvent: 78.0 parts by weight of acetone • • 1.5 parts by weight of dimethylformamide Emulsifier: alkylarylpolyglycol ether
(§1) To produce a suitable preparation of active compound, 1 part by weight of active compound is mixed with the stated amount of solvents and is diluted with water, containing an emulsifier concentration of 1000 ppm, to the desired concentration. Further test concentrations are prepared by dilution with emulsifier containing water.
Chinese cabbage (Brassica pekinensis) leaf disks are sprayed with a preparation of the active ingredient of the desired concentration. Once dry, the leaf disks are infested with mustard beetle larvae (Phaedon cochleariae).
After 7 days mortality in % is determined. 100% means all beetle larvae have been killed and 0% means none of the beetle larvae have been killed.

The next data set deals with Myzus persicae. The data set can be described thus: Myzus persicae oral test. In kind it is in vivo. To be noted: 120 h, after 5 days. As to the method:
Myzus persicae—Oral Test Solvent: 100 parts by weight acetone
To produce a suitable preparation of active compound, 1 part by weight of active compound is mixed with the stated amount of solvent, and the concentrate is diluted with water to the desired concentration.
50 μl compound solution is filled in microtiter plates and 150 μl IPL41 insect medium (33%+15% sugar) is added to obtain a total volume of 200 μl per well. Afterwards the plates are sealed with parafilm through which a mixed population of the green peach aphid (Myzus persicae) can suck on the compound preparation.
After 5 days mortality in % is determined. 100% means all aphids have been killed and 0% means none of the aphids have been killed.

The test system of another data set is Boophilus microplus. As to the kind of experiment: Boophilus microplus injection test. The following applies: Rhipicephalus microplus, 168 h; 20 gg/animal, injection into abdomen, after 7 days; read-out: efficacy (infertile eggs). Type of data set: in vivo. As to the method:
Boophilus microplus—Injection Test Solvent: dimethyl sulfoxide To produce a suitable preparation of active compound, 10 mg of active compound are dissolved in 0.5 ml solvent, and the concentrate is diluted with solvent to the desired concentration. Five adult engorged female ticks (Boophilus microplus) are injected with 1 μl compound solution into the abdomen. The ticks are transferred into replica plates and incubated in a climate chamber. After 7 days egg deposition of fertile eggs is monitored. Eggs where fertility is not visible are stored in a climate chamber till hatching after about 42 days. An efficacy of 100% means all eggs are infertile; 0% means all eggs are fertile.

Data set [2] deals with Aedes aegypti strain MONHEIM. The data set can be described thus: Aedes aegypti test (AEDSAE surface treatment & contact assay). In kind it is in vivo. To be noted: surface concentration 20 mg/m^2, 30 minutes exposure, 24 hours after contact, read-out: efficacy (mortality). As to the method:
Aedes aegyti Test (AEDSAE Surface Treatment & Contact Assay) Solvent: Aceton+2000 ppm rapeseed oil methyl ester (RME)
In order to produce a sufficient, active ingredient containing solution it is necessary to solve the test compound in the solvent-mix (acetone at 2 mg/ml/RME 2000 ppm). This solution is pipetted onto a glazed tile and after evaporation of the acetone, adult mosquitoes of the species Aedes aegypti strain MONHEIM are placed onto the dried surface. The exposure time is 30 minutes.
Mortality in percent (%) is determined 24 hours after contact to the treated surface. 100% mortality means that all tested insects are dead, whereas 0% means that no insect died.

The test system of data set [3] is Ctenocephalides felis. The data set can be described thus: Ctenocephalides felis in-vitro contact test, adult cat flea. In kind it is in vivo. To be noted: 5 μg/cm^2, after 48 hours. As to the method:
(§2) 9 mg compound is solved in 1 ml acetone and diluted with acetone to the desired concentration. 250 μl of the test solution is filled in 25 ml glass test tubes and homogeneously distributed on the inner walls by rotation and tilting on a shaking device (2 h at 30 rpm). With a compound concentration of 900 ppm, an inner surface of 44.7 cm^2 and a homogeneous distribution, a dose of 5 μg/cm^2 is achieved.
After the solvent has evaporated, each test tube is filled with 5-10 adult cat fleas (Ctenocephalides felis), closed with a perforated lid and incubated in a lying position at room temperature and relative humidity. After 48 hours efficacy is determined. The fleas are patted on the ground of the tubes and are incubated on a heating plate at 45-50° C. for at most 5 minutes. Immotile or uncoordinated moving fleas, which are not able to escape the heat by climbing upwards, are marked as dead or moribund.
An efficacy of 100% means all fleas are dead or moribund; 0% means no fleas are dead or moribund.

In the next data set the test system is Rhipicephalus sanguineus. As to the kind of experiment: Rhipicephalus sanguineus in-vitro contact test, adult brown dog ticks. Type of data set: in vivo. To be noted: 5 gg/cm^2, after 48 hours. As to the method: as §2
After the solvent has evaporated, each test tube is filled with 5-10 adult brown dog ticks (Rhipicephalus sanguineus), closed with a perforated lid and incubated in a lying position at room temperature and relative humidity. After 48 hours efficacy is determined. The ticks are patted on the ground of the tubes and are incubated on a heating plate at 45-50° C. for at most 5 minutes. Immotile or uncoordinated moving ticks, which are not able to escape the heat by climbing upwards, are marked as dead or moribund.
An efficacy of 100% means all ticks are dead or moribund; 0% means no ticks are dead or moribund.

In another data set the test system is Nilaparvata lugens. As to the kind of experiment: Nilaparvata lugens spray test. The following applies: 96 h, after 4 days. In kind it is in vivo. As for the experimental part: Nilaparvata lugens—Spray Test Solvent: 78.0 parts by weight of acetone • • 1.5 parts by weight of dimethylformamide Emulsifier: alkylarylpolyglycol ether
as §1
Rice plants (Oryza sativa) are sprayed with a preparation of the active ingredient of the desired concentration and the plants are infested with the brown planthopper (Nilaparvata lugens).
After 4 days mortality in % is determined. 100% means all planthoppers have been killed and 0% means none of the planthoppers have been killed.

For a further data set, the system named is Spodoptera frugiperda. As to the kind of experiment: Spodoptera frugiperda spray test. Type of data set: in vivo. To be noted: 168 h, after 7 days. As for the experimental part:
Suodontera frugiuerda—Spray Test Solvent: 78.0 parts by weight acetone • 1.5 parts by weight dimethylformamide Emulsifier: alkylarylpolyglycol ether
as §1
Maize (Zea mays) leaf sections are sprayed with a preparation of the active ingredient of the desired concentration. Once dry, the leaf sections are infested with fall armyworm larvae (Spodoptera frugiperda).
After 7 days mortality in % is determined. 100% means all caterpillars have been killed and 0% means none of the caterpillars have been killed.

The nature of data set [4]: log P by HPLC on reversed phase, neutral range. To be noted: reversed phase HPLC column, LC-UV, 0.001 molar ammonium acetate solution in water and acetonitrile. Type of data set: physicochemical. As for the experimental part:
Measurement of log P values was performed according to EEC directive 79/831 Annex V.A8 by HPLC (High Performance Liquid Chromatography) on reversed phase columns with the following methods. Instrument(s): Agilent 1100 LC system, Agilent MSD system, HTS PAL; Waters IClass Acquity UPLC, SQD2 (MS), PDA (UV). […] Calibration was done with straight-chain alkan-2-ones (with 3 to 16 carbon atoms) with known log P values (measurement of log P values using retention times with linear interpolation between successive alkanones). Lambda-max-values were determined using UV-spectra from 200 nm to 400 nm and the peak values of the chromatographic signals.

For the molecule `O=C(c1cc(Cl)nc(Cl)c1)N(Cc1ncnn1-c1ncccn1)CC1CC1` [Example I-002], the mortality (usually the percentage killed) at 100 ppm in the data set on Ctenocephalides felis [1] is 80%. The pest or weed control at 160 µg/well with Diabrotica balteata worked out at 100%. Also, the mortality at 500 g/ha in the data set with Phaedon cochleariae was 100%. The molecule also had a mortality at 20 ppm with Myzus persicae of 100%.
Regarding `O=C(c1cccc(C(F)(F)F)c1)N(Cc1ncnn1-c1ncccn1)CC1CC1` [Example I-003], the pest or weed control at 0.02 mg with Boophilus microplus was 100%. Besides, in the data set on Diabrotica balteata, the pest or weed control at 160 µg/well is 100%. For the same molecule, the mortality at 500 g/ha in the data set on Phaedon cochleariae amounted to 100%. For the same molecule, the mortality at 20 ppm with Myzus persicae stood at 100%.
For `O=C(NCCc1ncnn1-c1ncccn1)c1cc(Cl)cc(C(F)(F)F)c1` [Example I-006], the mortality at 20 mg/m2 in data set [2] lay within 85 to 100%. Also, the pest or weed control at 0.02 mg in the data set with Boophilus microplus was determined as 100%. Moreover, the mortality at 100 ppm in the data set on Ctenocephalides felis [1] stood at 100%. The pest or weed control at 160 µg/well with Diabrotica balteata is 100%. For the same molecule, in the data set on Phaedon cochleariae, the mortality at 500 g/ha worked out at 100%. Besides, the mortality at 20 ppm in the data set with Myzus persicae amounted to 100%.
The molecule `O=C(NC(CC1CC1)c1ncnn1-c1ncccn1)c1cc(Cl)cc(C(F)(F)F)c1` (stereo not drawn) [Example I-007] came in with a mortality at 20 ppm in the data set with Myzus persicae of 100%.
Take `O=C(NC(c1ncnn1-c1ncccn1)C1CC1)c1cc(Cl)cc(C(F)(F)F)c1` (stereo not drawn) [Example I-008]: the pest or weed control at 0.02 mg with Boophilus microplus was determined as 95%. The mortality at 100 ppm with Ctenocephalides felis [1] is 100%. Moreover, in the data set on Phaedon cochleariae, the mortality at 500 g/ha came out at 100%.
Turning to `O=C(c1cc(Cl)cc(Cl)c1)N(Cc1ncnn1-c1ncccn1)CC1CC1` [Example I-010], the pest or weed control at 160 µg/well with Diabrotica balteata was determined as 100%. Besides, the mortality at 500 g/ha in the data set on Phaedon cochleariae came to 100%. This molecule also yielded a mortality at 20 ppm with Myzus persicae of 100%.
For `COCC(NC(=O)c1cc(Cl)cc(C(F)(F)F)c1)c1ncnn1-c1ncccn1` (stereo not drawn) [Example I-012, 3-Chloro-N-{2-methoxy-1-[1-(pyrimidin-2-yl)-1H-1,2,4-triazol-5-yl]ethyl}-5-(trifluoromethyl)-benzamide], the pest or weed control at 0.02 mg in the data set on Boophilus microplus was found to be 100%. Further, in the data set on Ctenocephalides felis [3], the “efficacy (fleas dead or moribund)” value was 100%. Further, the mortality at 100 ppm in the data set with Ctenocephalides felis [1] was 100%. In addition, the pest or weed control at 160 µg/well in the data set with Diabrotica balteata is 100%. Also, in the data set on Rhipicephalus sanguineus, the “efficacy (ticks dead or moribund)” value is 80%. Also, the mortality at 500 g/ha in the data set with Phaedon cochleariae and in the data set with Nilaparvata lugens was 100% throughout. In addition, the mortality at 20 ppm in the data set on Myzus persicae was found to be 100%.
Turning to `COCC(NC(=O)c1cc(Cl)cc(C(F)(F)F)c1)c1ncnn1-c1ccc(C#N)cn1` (stereo not drawn) [Example I-013], the pest or weed control at 0.02 mg in the data set on Boophilus microplus turned out to be 100%. Moreover, the mortality at 500 g/ha in the data set with Spodoptera frugiperda was 100%. Moreover, the mortality at 100 ppm with Ctenocephalides felis [1] stood at 100%.
With `O=C(NC1(c2ncnn2-c2ncccn2)CC1)c1cc(C(F)(F)F)cc(C(F)(F)F)c1` [Example I-014], the pest or weed control at 0.02 mg in the data set with Boophilus microplus came to 100%.
Consider `COC[C@H](NC(=O)c1cc(Cl)cc(Cl)c1)c1ncnn1-c1ccc(C#N)cn1` [Example I-017], for which the mortality at 500 g/ha with Spodoptera frugiperda was found to be 100%. Further, the “efficacy (fleas dead or moribund)” value in the data set on Ctenocephalides felis [3] is 90%.
Molecule `COC[C@H](NC(=O)c1cc(Cl)cc(OC(F)(F)F)c1)c1ncnn1-c1ccc(C#N)cn1` [Example I-018] yielded a mortality at 500 g/ha with Spodoptera frugiperda of 100%.
`NCCc1ncnn1-c1ncccn1` [a-002]: the chromatographic logP (usually lipophilicity estimated from chromatographic retention) in [4] worked out at 0.01.
Same read-out and setting: to `N#Cc1ccc(-n2ncnc2CCN)nc1` [a-003] belongs 0.87; to `COCC(NC(=O)c1cc(Cl)cc(C(F)(F)F)c1)C(N)=O` (stereo not drawn) [n-001, N-(1-amino-3-methoxy-1-oxopropan-2-yl)-3-chloro-5-(trifluoromethyl)benzamide], 1.94.

The record behind these values is patent US20220002268A1, “NOVEL HETEROARYL-TRIAZOLE AND HETEROARYL-TETRAZOLE COMPOUNDS AS PESTICIDES” (Bayer Aktiengesellschaft, priority 2019, published 2022).
